Laboratory results: publication PMC12459614 (European journal of medicinal chemistry, 2025)
Values belong to the compound of their own block, whether it stands above or below them.

Legend:
hGPR17L [1] = target: T1, hGPR17L (Homo sapiens, UniProt Q13304); experiment: cAMP accumulation HTRF assay; conditions: cAMP accumulation assay
hGPR17L [2] = target: T1, hGPR17L; experiment: Calcium mobilization assay; type: cell-based; conditions: for Emax: 1321-N1, read-out: % Efficacy Avg ± SEM; for IC50 / Calcium assay IC50(μM) Avg ± SEM: reported only when efficacy ≥75%; for antagonist activity at GPR17: data not shown
hGPR17L [3] = target: T1, hGPR17L; experiment: cAMP signaling in GLUTag cells expressing hGPR17L; type: cell-based; conditions: for attenuation of MDL-mediated inhibition of forskolin-stimulated cAMP: 10 μM compound, 100 nM MDL, 10 μM forskolin
hGPR17L [4] = target: T1, hGPR17L; experiment: GLP-1 secretion assay in GLUTag cells expressing hGPR17L; type: cell-based; conditions: 10 μM compound; 6.3 μM MDL; 10 μM forskolin and 10 μM IBMX
GPR17 = conditions: cited from earlier work
[5] = Calcium assay IC50(μM) Avg ± SEM, Table 3
[6] = Calcium Assay IC50(μM) Avg ± SEM, Table 2

T1 sequence (Q13304 whole entry): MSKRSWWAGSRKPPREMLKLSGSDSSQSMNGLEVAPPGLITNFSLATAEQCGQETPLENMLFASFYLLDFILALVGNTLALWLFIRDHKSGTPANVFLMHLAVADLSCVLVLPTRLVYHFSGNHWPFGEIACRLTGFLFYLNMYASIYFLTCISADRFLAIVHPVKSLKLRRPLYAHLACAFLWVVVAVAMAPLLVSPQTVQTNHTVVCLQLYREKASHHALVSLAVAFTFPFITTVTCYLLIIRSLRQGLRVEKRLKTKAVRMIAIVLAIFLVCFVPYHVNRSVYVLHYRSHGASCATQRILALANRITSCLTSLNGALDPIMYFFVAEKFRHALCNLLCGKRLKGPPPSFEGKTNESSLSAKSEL

- Calcium assay IC50(μM) Avg ± SEM (hGPR17L [2]; Table 3): inactive
SMILES: COc1ccc(C(=O)NC2CCCc3c2[nH]c2cc(C(=O)O)ccc32)cc1OC (stereo not shown) [Compd 25, 1-(3,4-Dimethoxybenzamido)-2,3,4,9-tetrahydro-1H-carbazole-7-carboxylic acid]

- antagonist activity at GPR17 (hGPR17L [2]; calcium mobilization assay): partial antagonist activity
SMILES: CCCc1c(OCCCCc2nnn[nH]2)ccc(C(C)=O)c1O [tomelukast, reference compound]

- antagonist activity at GPR17 (hGPR17L [2]; calcium mobilization assay): full antagonist activity
SMILES: COc1cc(C(=O)NS(=O)(=O)c2ccccc2C)ccc1Cc1cn(C)c2ccc(NC(=O)OC3CCCC3)cc12 [zafirlukast, reference compound]

- antagonist activity at GPR17 (hGPR17L [2]; calcium mobilization assay): partial antagonist activity
SMILES: CC(C)(O)c1ccccc1CC[C@@H](SCC1(CC(=O)O)CC1)c1cccc(/C=C/c2ccc3ccc(Cl)cc3n2)c1 [montelukast, reference compound]
- block of MDL-stimulated receptor activation of GPR17 (GPR17): partially

- Emax (hGPR17L [2]): 83.7 ± 2.39%
- IC50 (hGPR17L [2]; [5]): 11.8 ± 0.5 µM
SMILES: COc1ccc(C(=O)NC2CCCc3c2[nH]c2c(C)ccc(C)c32)cc1OC (stereo not shown) [Compd 23, N-(5,8-dimethyl-2,3,4,9-tetrahydro-1H-carbazol-1-yl)-3,4-dimethoxybenzamide]

- Calcium assay IC50(μM) Avg ± SEM (hGPR17L [2]; Table 3): inactive
SMILES: COc1ccc(C(=O)NC2CCCc3c2[nH]c2c(C(=O)O)cccc32)cc1OC (stereo not shown) [Compd 24, 1-(3,4-Dimethoxybenzamido)-2,3,4,9-tetrahydro-1H-carbazole-8-carboxylic acid]

- antagonist activity at GPR17 (hGPR17L [2]; calcium mobilization assay): do not observe antagonist activity
SMILES: Clc1ccccc1CN1CCc2sccc2C1 [ticlopidine, reference compound]

- cAMP levels after forskolin stimulation (hGPR17L [3]; forskolin alone, basal 0.59 ± 0.04 nM): 4.7 ± 0.36 nM
SMILES: C=C[C@@]1(C)CC(=O)[C@]2(O)[C@@]3(C)[C@@H](O)CCC(C)(C)[C@@H]3[C@H](O)[C@H](OC(C)=O)[C@@]2(C)O1 [Forskolin, forskolin, reference compound]

- antagonist activity at GPR17 (hGPR17L [2]; calcium mobilization assay): do not observe antagonist activity
SMILES: CC(=O)Oc1cc2c(s1)CCN(C(C(=O)C1CC1)c1ccccc1F)C2 (stereo not shown) [prasugrel, reference compound]

- Calcium assay IC50(μM) Avg ± SEM (hGPR17L [2]; Table 3): inactive
SMILES: COc1ccc(C(=O)NC2CCCc3c2[nH]c2ccc(C(=O)O)cc32)cc1OC (stereo not shown) [Compd 26, 1-(3,4-Dimethoxybenzamido)-2,3,4,9-tetrahydro-1H-carbazole-6-carboxylic acid]

- antagonist activity at GPR17 (hGPR17L [2]; calcium mobilization assay): no antagonist activity
SMILES: CN(C)C(=O)CCSC(SCCC(=O)O)c1cccc(/C=C/c2ccc3ccc(Cl)cc3n2)c1 (stereo not shown) [MK571, reference compound]

- antagonist activity at GPR17 (hGPR17L [2]; calcium mobilization assay): do not observe antagonist activity
SMILES: COC(=O)[C@H](c1ccccc1Cl)N1CCc2sccc2C1 [clopidogrel, reference compound]

Second part, the compound before the results:

SMILES: CC(C)[C@@H](O)CC[C@@H](C)[C@H]1CC[C@H]2[C@@H]3CC=C4C[C@@H](O)CC[C@]4(C)[C@H]3CC[C@]12C [24S-HC, 24(S)-hydroxycholesterol, reference compound]
- activation of GPR17 or potentiation of MDL (hGPR17L [1]): not able to confirm
- activation of GPR17 or potentiation of MDL (hGPR17L [2]; calcium mobilization assay): not able to confirm

SMILES: COc1ccc(C(=O)NC2CCCc3c2[nH]c2c(C)cc(C)cc32)cc1OC (stereo not shown) [Compd 21, N-(6,8-Dimethyl-2,3,4,9-tetrahydro-1H-carbazol-1-yl)-3,4-dimethoxybenzamide]
- Emax (hGPR17L [2]): 87.5 ± 0.92%
- IC50 (hGPR17L [2]; [5]): 12.2 ± 0.5 µM
- attenuation of MDL-mediated inhibition of forskolin-stimulated cAMP (hGPR17L [3]): significantly attenuated

SMILES: O=C(NC1CCCc2c1[nH]c1c(Cl)cccc21)c1c(F)cc([N+](=O)[O-])cc1F (stereo not shown) [Compd 12, N-(8-chloro-2,3,4,9-tetrahydro-1H-carbazol-1-yl)-2,6-difluoro-4-nitrobenzamide]
- Emax (hGPR17L [2]): 44.3 ± 3.47%

SMILES: COc1ccc(C(=O)NC2CCCc3c2[nH]c2c(Br)cccc32)cc1OC (stereo not shown) [Compd 19, N-(8-Bromo-2,3,4,9-tetrahydro-1H-carbazol-1-yl)-3,4-dimethoxybenzamide]
- Emax (hGPR17L [2]): 125 ± 4.3%
- IC50 (hGPR17L [2]; [5]): 4.29 ± 0.48 µM

SMILES: COc1cc(C(=O)NC2CCCc3c2[nH]c2c(Cl)cccc32)ccc1F (stereo not shown) [Compd 9, N-(8-Chloro-2,3,4,9-tetrahydro-1H-carbazol-1-yl)-4-fluoro-3-methoxybenzamide]
- Emax (hGPR17L [2]): 90.3 ± 7.04%
- IC50 (hGPR17L [2]; [6]): 12.6 ± 0.89 µM

SMILES: O=C(NC1CCCc2c1[nH]c1c(Cl)cccc21)C(NS(=O)(=O)c1cccs1)c1ccccc1 (stereo not shown) [Compd 14, N-(8-Chloro-2,3,4,9-tetrahydro-1H-carbazol-1-yl)-2-phenyl-2-(thiophene-2-sulfonamido)acetamide]
- Emax (hGPR17L [2]): 104 ± 9.32%
- IC50 (hGPR17L [2]; [6]): 7.94 ± 0.49 µM

SMILES: COc1ccc(C(=O)NC2CCCc3c2[nH]c2c(Cl)cccc32)cc1S(C)(=O)=O (stereo not shown) [Compd 5, N-(8-Chloro-2,3,4,9-tetrahydro-1H-carbazol-1-yl)-4-methoxy-3-(methylsulfonyl)benzamide]
- Emax (hGPR17L [2]): 50.6 ± 3.54%

SMILES: COc1ccc(C(=O)NC2CCCc3c2[nH]c2ccccc32)cc1OC (stereo not shown) [Compd 18, 3,4-Dimethoxy-N-(2,3,4,9-tetrahydro-1H-carbazol-1-yl)benzamide]
- Emax (hGPR17L [2]): 72.1 ± 4.2%
- IC50 (hGPR17L [2]; [5]): 9.44 ± 1.25 µM

SMILES: Cc1cc([N+](=O)[O-])ccc1C(=O)NC1CCCc2c1[nH]c1c(Cl)cccc21 (stereo not shown) [Compd 11, N-(8-Chloro-2,3,4,9-tetrahydro-1H-carbazol-1-yl)-2-methyl-4-nitrobenzamide]
- Emax (hGPR17L [2]): 29.8 ± 1.21%

SMILES: O=C(O)c1ccc(C(=O)NC2CCCc3c2[nH]c2c(Cl)cccc32)cc1 (stereo not shown) [Compd 15, 4-((8-Chloro-2,3,4,9-tetrahydro-1H-carbazol-1-yl)carbamoyl)benzoic acid]
- attenuation of MDL-mediated inhibition of GLP-1 secretion (hGPR17L [4]): significantly attenuated
- Emax (hGPR17L [2]): 49.4 ± 2.45%
- attenuation of MDL-mediated inhibition of forskolin-stimulated cAMP (hGPR17L [3]): significantly attenuated

SMILES: COc1cc(OC)cc(C(=O)NC2CCCc3c2[nH]c2c(Br)cccc32)c1 (stereo not shown) [Compd 20, N-(8-bromo-2,3,4,9-tetrahydro-1H-carbazol-1-yl)-3,5-dimethoxybenzamide]
- Emax (hGPR17L [2]): 55.5 ± 1.74%

SMILES: O=C(NC1CCCc2c1[nH]c1c(Cl)cccc21)c1ccc([N+](=O)[O-])c([N+](=O)[O-])c1 (stereo not shown) [Compd 8, N-(8-Chloro-2,3,4,9-tetrahydro-1H-carbazol-1-yl)-3,4-dinitrobenzamide]
- Emax (hGPR17L [2]): 74.1 ± 2.16%
- attenuation of MDL-mediated inhibition of forskolin-stimulated cAMP (hGPR17L [3]): significantly attenuated

SMILES: CCCSc1nc(N[C@@H]2C[C@H]2c2ccc(F)c(F)c2)c2nnn([C@@H]3C[C@H](OCCO)[C@@H](O)[C@H]3O)c2n1 [ticagrelor]
- block of MDL-stimulated receptor activation (GPR17): failed to block

SMILES: Cc1ccc(C(=O)NC2CCCc3c2[nH]c2c(Cl)cccc32)cc1 (stereo not shown) [Compd 17, N-(8-chloro-2,3,4,9-tetrahydro-1H-carbazol-1-yl)-4-methylbenzamide]
- Emax (hGPR17L [2]): 62.6 ± 4.84%

SMILES: CS(=O)(=O)c1ccc(C(=O)NC2CCCc3c2[nH]c2c(Cl)cccc32)cc1F (stereo not shown) [Compd 6, N-(8-Chloro-2,3,4,9-tetrahydro-1H-carbazol-1-yl)-3-fluoro-4-(methylsulfonyl)benzamide]
- Emax (hGPR17L [2]): 38 ± 2.73%

SMILES: O=C(O)c1ccc(OCCCc2ccc(OCCCCOc3ccccc3)cc2)c(C(=O)NC2CCCC(C(=O)O)C2)c1 (stereo not shown) [BayCysLT2, reference compound]
- block of MDL-stimulated receptor activation of GPR17 (GPR17): completely
- antagonist activity at GPR17 (hGPR17L [2]; calcium mobilization assay): full antagonist activity

SMILES: COc1ccc(C(=O)NC2CCCc3c2[nH]c2c(Cl)cccc32)cc1C (stereo not shown) [Compd 4, N-(8-Chloro-2,3,4,9-tetrahydro-1H-carbazol-1-yl)-4-methoxy-3-methylbenzamide]
- Emax (hGPR17L [2]): 81.5 ± 1.23%
- IC50 (hGPR17L [2]; [6]): 10.7 ± 0.29 µM

SMILES: CSCCNc1nc(SCCC(F)(F)F)nc2c1ncn2[C@@H]1O[C@H](COP(=O)(O)OP(=O)(O)C(Cl)(Cl)P(=O)(O)O)[C@@H](O)[C@H]1O [cangrelor]
- block of MDL-stimulated receptor activation (GPR17): failed to block

SMILES: COc1cc(OC)cc(C(=O)NC2CCCc3c2[nH]c2c(C)cc(C)cc32)c1 (stereo not shown) [Compd 22, N-(6,8-Dimethyl-2,3,4,9-tetrahydro-1H-carbazol-1-yl)-3,5-dimethoxybenzamide]
- Emax (hGPR17L [2]): 68.2 ± 1.59%

SMILES: COc1cccc(-c2ccccc2-c2ccc(C(=O)Nc3ccc(OC)cc3C(=O)O)o2)c1 [PSB-22269]
- potency in a binding assay and functional assays (GPR17): nanomolar range potency

SMILES: O=C(NC1CCCc2c1[nH]c1c(Cl)cccc21)c1ccc2c(c1)OCO2 (stereo not shown) [Compd 3, N-(8-Chloro-2,3,4,9-tetrahydro-1H-carbazol-1-yl)benzo[d][1,3]dioxole-5-carboxamide]
- Emax (hGPR17L [2]): 77.4 ± 3.46%
- IC50 (hGPR17L [2]; [6]): 11.4 ± 0.59 µM

SMILES: O=C(NC1CCCc2c1[nH]c1c(Cl)cccc21)c1ccc(Br)cc1 (stereo not shown) [Compd 16, 4-Bromo-N-(8-chloro-2,3,4,9-tetrahydro-1H-carbazol-1-yl)benzamide]
- Emax (hGPR17L [2]): 40.4 ± 4.47%

SMILES: O=C(NC1CCCc2c1[nH]c1c(Cl)cccc21)c1ccc(F)c([N+](=O)[O-])c1 (stereo not shown) [Compd 13, N-(8-chloro-2,3,4,9-tetrahydro-1H-carbazol-1-yl)-4-fluoro-3-nitrobenzamide]
- Emax (hGPR17L [2]): 101 ± 9.98%
- IC50 (hGPR17L [2]; [6]): 11.6 ± 1.19 µM

SMILES: Cc1cc(C(=O)NC2CCCc3c2[nH]c2c(Cl)cccc32)ccc1Br (stereo not shown) [Compd 10, 4-Bromo-N-(8-chloro-2,3,4,9-tetrahydro-1H-carbazol-1-yl)-3-methylbenzamide]
- Emax (hGPR17L [2]): 52.8 ± 2.26%

SMILES: CS(=O)(=O)c1ccc(C(=O)NC2CCCc3c2[nH]c2c(Cl)cccc32)cc1[N+](=O)[O-] (stereo not shown) [Compd 7, N-(8-Chloro-2,3,4,9-tetrahydro-1H-carbazol-1-yl)-4-(methylsulfonyl)-3-nitrobenzamide]
- Emax (hGPR17L [2]): 117 ± 6.08%
- IC50 (hGPR17L [2]; [6]): 4.42 ± 0.34 µM

SMILES: COc1cc(C(=O)NC2CCCc3c2[nH]c2c(Cl)cccc32)cc(OC)c1OC (stereo not shown) [Compd 2, N-(8-Chloro-2,3,4,9-tetrahydro-1H-carbazol-1-yl)-3,4,5-trimethoxybenzamide]
- Emax (hGPR17L [2]): 47.4 ± 3.11%
